Test system: caspase-14
Experiment: caspase-14 production in amino acid-depleted epidermal keratinocytes (ELISA)
Type: cell-based
Conditions: human skin-simulating medium 2, cultured 4 days
Description: Culture media ([…] medium) used for cell culture contain amino acids necessary for cells to survive and grow. […] human skin-simulating medium 2: The essential amino acids in D-MEM (Life Technologies 21068-028) were changed to the concentrations shown in Table 10, human skin-simulating medium 2. […] The next day, the medium was replaced with the medium of evaluation condition (5)-(7). • Evaluation condition (5): Human skin-simulating medium 2 (hereinafter the sample evaluated under evaluation condition (5) is referred to as “Control 3”). • Evaluation condition (6): Medium obtained by adding His (final concentration 0.2 mM), Leu (final concentration 0.8 mM), Val (final concentration 0.8 mM) to human skin-simulating medium 2 (hereinafter the sample evaluated under evaluation condition (6) is referred to as “Example 3”). • Evaluation condition (7): Medium obtained by adding His (final concentration 0.2 mM) to human skin-simulating medium 2 (hereinafter the sample evaluated under evaluation condition (7) is referred to as “Example 4”). […] The protein extract of the above-mentioned 4 was diluted with water, and the protein was quantified using Micro BCA Protein Assay Kit (Thermo Fisher Scientific 23235). • 6. The amount of caspase-14 determined in the above-mentioned 4 was normalized by the amount of protein determined in the above-mentioned 5. • 7. […]

amount of caspase-14 (normalized by protein amount, Control 3 as 100%) (Experimental Example 2-3, FIG. 3, final His 0.2, Leu 0.8, Val 0.8 mM or His 0.2 mM alone): remarkably increased
amount of caspase-14 (normalized by protein amount, Control 7 as 100%) (Experimental Example 3-3-1, FIG. 6A, final His 0.2, Leu 0.8, Val 0.8 mM, Val 0.8 mM alone or His 0.2 mM alone): remarkably increased
Compound: N[C@@H](Cc1c[nH]cn1)C(=O)O [His, histidine]

Source: patent publication US20250352448A1, “COMPOSITION FOR IMPROVING SKIN CONDITIONS” (AJINOMOTO CO., INC., priority 2022, published 2025)
